Reference: US11311522B1 (Cavion, Inc., priority 2018, dated 2022)
“And” between values parts separate entries of the source, which are not always exact repeats. Identical values can stand only once. Like-named read-outs stand apart in the source and are kept apart here.

How the values were obtained:
[1] = Phase 1 single-dose pharmacokinetics (PN001, PN002/Part I, PN003, PN005); format: in vivo, human; conditions: for Cmax / AUC(0-t): male, human, plasma, oral; for AUC(0-t): read-out: AUC0-24
clinical = conditions: human, plasma, oral, 8 mg
Description: Subjects will be screened for study eligibility within 28 days before administration of the first dose of study drug. Subjects who meet the study eligibility criteria will be admitted to the clinical research unit in the afternoon of the day before administration of the first dose of study drug (Period 1/Day −1).
Treatments A, B, and C will be separated by a minimum 7-day washout period. […] Administration of Treatment D may be separated from administration of Treatments A, B, and C by approximately 4 weeks to allow for analysis of the bioanalytical samples from the first 3 treatments.

[2] = In vitro plasma protein binding, dog; format: in vitro ADME
Description: (§1) CX-8998 distributes readily to the brain in rats and to brain and cerebral spinal fluid (CSF) in dogs.

[3] = Crossover bioavailability study IR vs MR1 vs MR2 capsules: PK; design: AUC72hr: unit not given beside the values; conditions: for AUC728, Mean / AUC728: single 8 mg dose, fasted; for AUC728, Mean: N=15; for AUC728: individual subjects; for AUC72hr: plasma
Pharmacokinetics in dogs = format: in vivo, dog
Description: (§2) The validity and reproducibility of the assays were determined, and the precision and accuracy for calibration standards and quality control samples were examined. […] The analytes were stable in plasma under the storage and assay conditions. […] Assay performances were satisfactory and met acceptance criteria for system performance suitability, quantitation range, calibration linearity, assay accuracy and precision, and assay recovery.

Cav3.3 = biological target: T1, Cav3.3 (Homo sapiens, UniProt Q9P0X4); test: Cav3.3 FLIPR calcium influx assay (HEK 293 cells); format: cell-based; conditions: read-out: IC50
T1 construct: expressed in transfected cells; host or cells: HEK 293
T1 sequence (Q9P0X4 whole entry, species assumed): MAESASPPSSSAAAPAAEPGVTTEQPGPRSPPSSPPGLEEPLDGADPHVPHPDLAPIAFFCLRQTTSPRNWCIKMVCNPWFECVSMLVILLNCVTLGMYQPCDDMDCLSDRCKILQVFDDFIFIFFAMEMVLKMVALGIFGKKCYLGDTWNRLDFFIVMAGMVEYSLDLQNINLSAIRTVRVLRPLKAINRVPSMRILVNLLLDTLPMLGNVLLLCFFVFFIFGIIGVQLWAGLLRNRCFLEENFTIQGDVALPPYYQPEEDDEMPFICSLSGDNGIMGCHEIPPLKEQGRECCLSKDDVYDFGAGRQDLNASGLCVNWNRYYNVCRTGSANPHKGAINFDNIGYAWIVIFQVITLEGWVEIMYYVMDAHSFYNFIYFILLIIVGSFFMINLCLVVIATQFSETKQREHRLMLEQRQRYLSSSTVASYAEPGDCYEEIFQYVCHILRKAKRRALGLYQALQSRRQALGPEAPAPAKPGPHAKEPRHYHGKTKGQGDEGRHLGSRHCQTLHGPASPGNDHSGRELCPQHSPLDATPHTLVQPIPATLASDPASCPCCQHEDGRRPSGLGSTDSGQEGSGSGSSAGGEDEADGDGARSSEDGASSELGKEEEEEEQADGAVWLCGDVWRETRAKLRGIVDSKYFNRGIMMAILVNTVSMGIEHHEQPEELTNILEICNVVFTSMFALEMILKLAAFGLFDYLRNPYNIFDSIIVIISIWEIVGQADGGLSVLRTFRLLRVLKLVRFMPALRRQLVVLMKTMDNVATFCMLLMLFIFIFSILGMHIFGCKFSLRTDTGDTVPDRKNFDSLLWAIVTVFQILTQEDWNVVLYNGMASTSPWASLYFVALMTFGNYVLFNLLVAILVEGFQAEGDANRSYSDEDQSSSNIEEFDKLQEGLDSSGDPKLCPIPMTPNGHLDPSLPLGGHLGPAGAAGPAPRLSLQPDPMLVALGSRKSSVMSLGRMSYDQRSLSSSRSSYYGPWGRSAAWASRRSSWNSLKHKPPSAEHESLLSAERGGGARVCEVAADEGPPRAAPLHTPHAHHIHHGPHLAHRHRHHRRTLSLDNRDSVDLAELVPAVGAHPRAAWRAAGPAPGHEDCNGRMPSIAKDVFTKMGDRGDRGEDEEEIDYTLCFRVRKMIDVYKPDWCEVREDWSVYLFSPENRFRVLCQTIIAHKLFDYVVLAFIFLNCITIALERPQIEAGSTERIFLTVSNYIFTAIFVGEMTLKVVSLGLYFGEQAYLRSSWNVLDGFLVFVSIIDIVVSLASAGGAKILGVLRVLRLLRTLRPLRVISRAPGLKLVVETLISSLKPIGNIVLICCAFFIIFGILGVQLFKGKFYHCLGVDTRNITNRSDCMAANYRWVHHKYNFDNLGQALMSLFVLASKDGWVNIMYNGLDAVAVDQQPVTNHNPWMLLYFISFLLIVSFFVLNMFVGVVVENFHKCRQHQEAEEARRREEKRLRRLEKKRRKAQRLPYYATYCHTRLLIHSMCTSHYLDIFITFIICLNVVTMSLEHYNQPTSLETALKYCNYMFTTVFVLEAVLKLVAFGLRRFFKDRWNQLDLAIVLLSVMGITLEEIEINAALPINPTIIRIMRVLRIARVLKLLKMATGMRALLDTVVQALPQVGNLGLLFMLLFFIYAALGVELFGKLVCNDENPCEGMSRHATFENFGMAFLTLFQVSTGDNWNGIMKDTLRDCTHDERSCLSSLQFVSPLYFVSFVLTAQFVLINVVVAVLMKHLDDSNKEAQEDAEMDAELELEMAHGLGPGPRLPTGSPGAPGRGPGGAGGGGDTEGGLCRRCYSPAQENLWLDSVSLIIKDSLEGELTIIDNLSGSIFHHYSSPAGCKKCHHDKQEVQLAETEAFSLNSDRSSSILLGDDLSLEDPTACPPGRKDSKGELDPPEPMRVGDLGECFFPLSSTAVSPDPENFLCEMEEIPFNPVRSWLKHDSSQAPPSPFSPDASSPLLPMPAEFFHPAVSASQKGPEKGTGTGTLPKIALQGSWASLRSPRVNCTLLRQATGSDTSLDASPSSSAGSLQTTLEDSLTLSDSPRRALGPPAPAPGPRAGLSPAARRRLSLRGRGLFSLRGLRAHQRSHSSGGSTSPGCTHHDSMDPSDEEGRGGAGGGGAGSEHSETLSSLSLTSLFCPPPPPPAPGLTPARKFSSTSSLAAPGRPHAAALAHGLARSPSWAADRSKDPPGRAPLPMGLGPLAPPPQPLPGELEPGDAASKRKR

in vivo = conditions: rat, po
[4] = Pharmacokinetics in rhesus monkeys; format: in vivo, rhesus monkey
Description: as §2

[5] = In vitro plasma protein binding, monkey; format: in vitro ADME
Description: as §1

[6] = In vitro plasma protein binding, rat; format: in vitro ADME
Description: as §1

[7] = 4-week oral toxicology in Beagle dogs
[8] = for Day 90 Free Plasma AUC24 at NOAEL for Dog 90-Day Toxicology: 30 mg/kg/day; for Day 90 Free Plasma AUC24 at NOAEL for Rat 90-Day Toxicology: 300 mg/kg/day
[9] = biological target: T2, breast cancer resistance protein (BCRP) (Homo sapiens, UniProt Q9UNQ0); test: BCRP transport; format: in vitro ADME; conditions: 30 μM
T2 sequence (Q9UNQ0 1-655): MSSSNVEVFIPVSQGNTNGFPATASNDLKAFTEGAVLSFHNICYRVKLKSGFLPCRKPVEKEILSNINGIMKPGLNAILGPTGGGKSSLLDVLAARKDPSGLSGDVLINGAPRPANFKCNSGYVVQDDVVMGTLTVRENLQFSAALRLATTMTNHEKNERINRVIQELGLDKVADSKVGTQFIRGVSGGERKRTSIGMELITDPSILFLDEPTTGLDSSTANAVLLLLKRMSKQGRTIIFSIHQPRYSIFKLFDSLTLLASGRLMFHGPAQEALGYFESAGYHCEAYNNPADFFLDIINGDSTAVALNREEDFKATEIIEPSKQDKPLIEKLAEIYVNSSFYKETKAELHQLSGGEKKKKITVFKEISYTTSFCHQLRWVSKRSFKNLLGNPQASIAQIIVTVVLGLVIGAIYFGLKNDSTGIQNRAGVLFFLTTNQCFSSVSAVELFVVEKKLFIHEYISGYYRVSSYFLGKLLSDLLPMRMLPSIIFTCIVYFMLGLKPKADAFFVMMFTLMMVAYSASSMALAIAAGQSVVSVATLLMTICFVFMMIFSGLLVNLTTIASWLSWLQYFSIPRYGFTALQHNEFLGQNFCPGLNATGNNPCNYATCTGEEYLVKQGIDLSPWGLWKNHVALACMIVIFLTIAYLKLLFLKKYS
Description: Glucuronide conjugates of the oxygenated metabolites are detected in human, monkey, and dog hepatocyte preparations. […] However, the abundance of CYP3A5, CYP2C19, and CYP2D6 in human liver microsomes is low (2%-5%) relative to the primary contributors, CYP3A4 (˜30%) and CYP2C9 (˜20%). […] Information on reproductive and developmental toxicology was obtained in a 28-day pivotal female fertility study in rats and in preliminary embryo-fetal development studies in rats and rabbits.

[10] = test system: CYP1A2, CYP3A4, CYP2C8, CYP2C9, CYP2C19, CYP2D6, CYP2B6; test: CYP inhibition in human liver microsomes; format: in vitro ADME
[11] = In vitro plasma protein binding, human; format: in vitro ADME
[12] = Simulated Css and total active moiety, 10 mg BID; design: species or system human; conditions: for Css, estimated mean / Steady-state AUC24, estimated mean: CX-8998 10 mg twice daily fasted
[13] = Monkey, IV 2 mg/kg, mean (SD), 3 animals
[14] = Beagle dog, 4-week toxicity, oral gavage
[15] = simulated from CX-8998 10 mg BID

Compound: CC(C)c1ccc(CC(=O)N[C@H](C)c2ccc(OCC(F)(F)F)cn2)cc1 [CX-8998]
- Cmax ([1]; 1 mg, PN001/Part I, males 20-40 y, single 1 mg fed, read-out: Cmax): 56 nM
- Cmax ([1]; 1 mg, PN001/Part I, males 20-40 y, single 1 mg, morning fasted, read-out: Cmax): 104 nM
- Cmax ([1]; 1 mg, fasted, read-out: Cmax, mean): 104 nM
- Cmax ([1]; 1 mg, fed (high-fat meal), read-out: Cmax, mean): 56 nM
- Cmax ([1]; 2 mg, PN002/Part I, males 55-75 y, single 2 mg, morning fasted, read-out: Cmax): 198 nM
- Cmax ([1]; 8 mg, PN002/Part I, males 55-75 y, single 8 mg, morning fasted, read-out: Cmax): 708 nM
- Cmax ([1]; 8 mg, single 8 mg CX-8998, PN002/Part I middle-aged and elderly males, read-out: Cmax): 708 nM
- AUC(0-t) ([1]; 12 mg, PN002 Part 2, 12 mg, 1 dose): 4.99 µM·h
- Cmax ([1]; 12 mg, PN002 Part 2, 12 mg, 1 dose, read-out: Cmax): 798 nM
- AUC(0-t) ([1]; 16 mg, PN001 Part 1, 16 mg, 1 dose): 8.52 µM·h
- Cmax ([1]; 18 mg, PN001/Part II, males 22-39 y, single 18 mg, morning fasted, read-out: Cmax): 1180 nM
- AUC(0-t) ([1]; 18 mg, PN001 Part 2, 18 mg, 1 dose): 9.93 µM·h
- Cmax ([1]; 18 mg, PN001 Part 2, 18 mg, 1 dose, read-out: Cmax): 1180 nM
- Cmax ([1]; 18 mg, PN002/Part I, males 55-75 y, single 18 mg, morning fasted, read-out: Cmax): 1330 nM
- AUC(0-t) ([1]; 18 mg, PN002 Part 1, 18 mg, 1 dose): 9.44 µM·h
- Cmax ([1]; 18 mg, PN002 Part 1, 18 mg, 1 dose, read-out: Cmax): 1330 nM
- Cmax ([1]; 24 mg, PN001/Part I, males 20-40 y, single 24 mg evening, read-out: Cmax): 1370 nM
- AUC(0-t) ([1]; Average of studies, dose 16, 1 dose): 8.22 µM·h
- Cmax ([1]; Average of studies, dose 16, 1 dose, read-out: Cmax): 1060 nM
- Mean Cmax higher than in younger male subjects ([1]; middle-aged and elderly female, 8 mg): 6%
- Mean Cmax higher than in younger male subjects ([1]; middle-aged and elderly male, 8 mg): 28%
- Reduction in Cmax with food ([1]; vs fasted state): 45%
- AUC(0-t) (clinical): 7.49 µM·h
- fraction unbound ([2]; dog plasma, read-out: In vitro plasma protein binding (converted)): ~0.003
- fraction unbound ([2]; dogs, read-out: free fraction): 0.003
- fraction unbound ([2]; read-out: Free fraction in dog plasma): 0.003
- AUC728, Mean ([3]; IR Formulation): 7435 nMh
- AUC728 ([3]; IR Formulation): 9175 nMh and 4786 nMh and 6911 nMh and 7288 nMh and 4596 nMh and 7940 nMh and 13892 nMh and 7217 nMh and 7305 nMh and 9382 nMh and 5463 nMh and 6845 nMh and 5185 nMh and 8628 nMh and 6910 nMh
- AUC728, Mean ([3]; MR1 Formulation): 7526 nMh
- AUC728 ([3]; MR1 Formulation): 9494 nMh and 4762 nMh and 7028 nMh and 7387 nMh and 4102 nMh and 8335 nMh and 13265 nMh and 8177 nMh and 6271 nMh and 9351 nMh and 5184 nMh and 7996 nMh and 5635 nMh and 8950 nMh and 7114 nMh
- AUC728, Mean ([3]; MR2 Formulation): 7119 nMh
- AUC728 ([3]; MR2 Formulation): 11133 nMh and 3862 nMh and 8064 nMh and 6813 nMh and 4833 nMh and 8180 nMh and 10810 nMh and 6034 nMh and 6730 nMh and 10165 nMh and 4975 nMh and 6136 nMh and 3085 nMh and 10051 nMh and 5947 nMh
- AUC72hr ([3]; following a single 8 mg dose of MR1 CX-8998): 7530
- AUC72hr ([3]; following a single 8 mg dose of MR2 CX-8998): 7125
- t½ (Pharmacokinetics in dogs; Dog, IV […], mean (SD), 3 animals): 7.3 (3.1) hr
- F (Pharmacokinetics in dogs; Dog, oral 0.5 mg/kg vs IV […], mean (SD)): 76 (47) %
- Vdss, mean (Pharmacokinetics in dogs; dog, in vivo): 0.8 L/kg
- half-life (Pharmacokinetics in dogs; dog, in vivo): 7.3 h
- bioavailability (Pharmacokinetics in dogs; dog, plasma, po, 0.5 mg/kg, single dose): 76%
- IC50 (Cav3.3; depolarizing conditions): ~3.6 nM and 3.6 nM
- IC50 (Cav3.3; hyperpolarizing conditions): ~161 nM and 161 nM
- half-life (in vivo; female, 5 mg/kg/day): 1.6 h
- half-life (in vivo; female, 100 mg/kg/day): 9.25 h
- half-life (in vivo; female, 300 mg/kg/day): 5.28 h
- half-life (in vivo; male, 15 mg/kg/day): 2.87 h
- Tmax (in vivo; male, 100 mg/kg/day): 2 h
- half-life (in vivo; male, 100 mg/kg/day): 3.72 h
- half-life (in vivo; male, 300 mg/kg/day): 5.68 h
- CL [4, 13]: 15.9 (2.5) mL/min/kg
- t½ [4, 13]: 1.3 (0.3) hr
- F ([4]; Monkey, oral 20 mg/kg vs IV 2 mg/kg, mean (SD)): 2.8 (10.) %
- Plasma clearance ([4]; rhesus monkey, in vivo): 16 mL/min/kg
- Vdss, mean ([4]; rhesus monkey, in vivo): 0.9 L/kg
- half-life ([4]; rhesus monkey, in vivo): 1.3 h
- fraction unbound [5]: ~0.012
- fraction unbound ([6]; rat plasma, read-out: In vitro plasma protein binding (converted)): ~0.008
- fraction unbound ([6]; rats, read-out: free fraction): 0.008
- fraction unbound ([6]; rodents, read-out: Plasma-free fraction): 0.004
- NOEL [7, 14]: NOEL. 20 mg/kg/day. Dose-limiting
- dose at which dose-limiting toxicity (mortality, physical signs) was observed [7, 14]: observed at 800 mg/kg/day
- NOEL ([7]; dog, in vivo): 20 mg/kg/day
- Safety margin (AUC24) at the NOEL over expected clinical exposure ([7]; dog, in vivo): approximately 30 fold
- Day 90 Free Margin for AUC24 at NOAEL for Dog 90-Day Toxicology ([8]; Female dogs vs human 10 mg BID): 19
- Day 90 Free Margin for Cmax at NOAEL for Dog 90-Day Toxicology ([8]; Female dogs vs human 10 mg BID (fed)): 57
- Day 90 Free Plasma AUC24 at NOAEL for Dog 90-Day Toxicology ([8]; Female dogs): 1089 nM · hr
- Day 90 Free Margin for AUC24 at NOAEL for Rat 90-Day Toxicology ([8]; Female rats vs human 10 mg BID): 81
- Day 90 Free Margin for Cmax at NOAEL for Rat 90-Day Toxicology ([8]; Female rats vs human 10 mg BID (fed)): 184
- Day 90 Free Plasma AUC24 at NOAEL for Rat 90-Day Toxicology ([8]; Female rats): 4528 nM · hr
- Day 90 Free Margin for AUC24 at NOAEL for Dog 90-Day Toxicology ([8]; Male dogs vs human 10 mg BID): 18
- Day 90 Free Margin for Cmax at NOAEL for Dog 90-Day Toxicology ([8]; Male dogs vs human 10 mg BID (fed)): 51
- Day 90 Free Plasma AUC24 at NOAEL for Dog 90-Day Toxicology ([8]; Male dogs): 1005 nM · hr
- Day 90 Free Margin for AUC24 at NOAEL for Rat 90-Day Toxicology ([8]; Male rats vs human 10 mg BID): 37
- Day 90 Free Margin for Cmax at NOAEL for Rat 90-Day Toxicology ([8]; Male rats vs human 10 mg BID (fed)): 78
- Day 90 Free Plasma AUC24 at NOAEL for Rat 90-Day Toxicology ([8]; Male rats): 2088 nM · hr
- NOAEL exposure vs intended free clinical exposures ([8]; beagle, dog): approximately 20 times
- Exposure without effects on fertility or reproduction vs intended clinical free AUC ([8]; rat): > 100 times
- NOAEL exposure vs intended free clinical exposures ([8]; rat): at least 39 times
- Inhibition of BCRP transport [9]: 57%
- Time-dependent inhibition of CYP3A4 or CYP2B6 [10]: insignificant
- fraction unbound ([11]; human plasma, read-out: Human-free fraction): 0.004
- fraction unbound ([11]; human plasma, read-out: In vitro plasma protein binding (converted)): ~0.004
- fraction unbound ([11]; humans, read-out: free fraction): 0.004
- Css, estimated mean ([12]; middle-aged and elderly men): 874 nM
- Steady-state AUC24, estimated mean ([12]; middle-aged and elderly men): 20.976 µM·h
- Css, estimated mean ([12]; middle-aged and elderly women): 981 nM
- Steady-state AUC24, estimated mean ([12]; middle-aged and elderly women): 23.544 µM·h
- Css, estimated mean ([12]; young men): 583 nM
- Steady-state AUC24, estimated mean ([12]; young men): 13.992 µM·h
- Cu, ss_adj ([12]; adjusted for fu and potency, 10 mg BID): 2.3 nM
- Cp, ss [12, 15]: 583 nM
- Cu, ss [12, 15]: 2.3 nM
